Test results reported in patent US11814367B2, “Inhibitors of glycogen synthase 1 (GYS1) and methods of use thereof” (Maze Therapeutics, Inc., priority 2021, dated 2023).

Legend:
[1] = tested on: hGYS1 enzyme / glycogen synthesis in HeLa cells; experiment: GYS1 cell based assay (glycogen synthesis, Glucose-glo); design: species or system human; settings: 24 h incubation, 20 mM glucose, geometric mean of at least 2 runs
Outline: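 HeLa cells starved 24 h in medium containing only 1× Glutamax were plated onto compound in medium with 20 mM glucose (1% DMSO final) for 24 h, 37 °C, 5% CO2. Acid lysates were Tris-quenched, glucoamylase-digested (pH 5.3, 1 h, 37 °C) and read by Glucose-glo luminescence. IC50 came from Hill fits, as geometric mean of ≥2 runs.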

[2] = molecular target: hGYS1 enzyme (recombinant hGYS1/GN1 protein) (Homo sapiens (Human), UniProt P13807); experiment: GYS1 coupled enzyme assay (PK/LDH); type: biochemical; settings: hGYS1/GN1 50 nM, UDP-Glucose 0.8 mM, G6P 1 mM; geometric mean of at least 2 runs
[3] = molecular target: hGYS2 enzyme (recombinant hGYS2/GN1 protein) (Homo sapiens (Human), UniProt P54840); experiment: GYS2 coupled enzyme assay (PK/LDH); type: biochemical; settings: geometric mean of at least 2 assay runs on separate days, read-out: Avg_IC50
Outline: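 IC50 came from Hill fits of duplicate percent inhibition, based on control-normalized slopes of 340 nm NADH decline read each minute for 10 min. The reaction held recombinant hGYS2/GN1 (200 nM) with glycogen, UDP-glucose, G6P and PEP, plus PK/LDH coupling at pH 7.5 and 2.5% DMSO.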

Chain of hGYS1 enzyme (recombinant hGYS1/GN1 protein) (P13807 whole entry): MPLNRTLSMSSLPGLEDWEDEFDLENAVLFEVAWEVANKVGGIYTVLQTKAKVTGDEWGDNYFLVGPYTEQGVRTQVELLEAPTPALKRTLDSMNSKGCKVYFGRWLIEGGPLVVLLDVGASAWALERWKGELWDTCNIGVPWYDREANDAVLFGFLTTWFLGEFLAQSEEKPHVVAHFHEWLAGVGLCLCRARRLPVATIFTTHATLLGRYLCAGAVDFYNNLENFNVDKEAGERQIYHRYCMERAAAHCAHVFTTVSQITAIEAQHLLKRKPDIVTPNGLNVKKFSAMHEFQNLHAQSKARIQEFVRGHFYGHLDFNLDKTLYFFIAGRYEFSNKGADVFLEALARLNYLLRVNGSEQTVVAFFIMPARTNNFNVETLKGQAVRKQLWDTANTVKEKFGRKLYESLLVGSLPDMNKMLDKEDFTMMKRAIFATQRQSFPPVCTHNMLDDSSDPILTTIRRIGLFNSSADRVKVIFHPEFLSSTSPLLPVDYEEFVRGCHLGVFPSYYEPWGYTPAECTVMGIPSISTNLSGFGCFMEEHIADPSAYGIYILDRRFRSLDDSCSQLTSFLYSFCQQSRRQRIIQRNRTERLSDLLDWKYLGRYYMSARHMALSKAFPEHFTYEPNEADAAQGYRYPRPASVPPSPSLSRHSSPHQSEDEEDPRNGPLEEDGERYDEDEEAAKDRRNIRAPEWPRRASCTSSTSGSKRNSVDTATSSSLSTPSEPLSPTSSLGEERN
Chain of hGYS1 enzyme (recombinant hGYS1/GN1 protein) (P46976 whole entry partner): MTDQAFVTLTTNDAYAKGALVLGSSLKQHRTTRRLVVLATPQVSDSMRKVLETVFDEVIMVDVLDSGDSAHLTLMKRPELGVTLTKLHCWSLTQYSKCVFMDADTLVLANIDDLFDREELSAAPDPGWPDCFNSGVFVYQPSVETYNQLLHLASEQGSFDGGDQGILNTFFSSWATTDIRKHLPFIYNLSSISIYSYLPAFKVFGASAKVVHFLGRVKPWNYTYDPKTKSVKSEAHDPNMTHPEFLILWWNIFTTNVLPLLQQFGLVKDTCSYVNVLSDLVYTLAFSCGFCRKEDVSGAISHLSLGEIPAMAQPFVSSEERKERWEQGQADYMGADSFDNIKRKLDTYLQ
Chain of hGYS2 enzyme (recombinant hGYS2/GN1 protein) (P54840 whole entry): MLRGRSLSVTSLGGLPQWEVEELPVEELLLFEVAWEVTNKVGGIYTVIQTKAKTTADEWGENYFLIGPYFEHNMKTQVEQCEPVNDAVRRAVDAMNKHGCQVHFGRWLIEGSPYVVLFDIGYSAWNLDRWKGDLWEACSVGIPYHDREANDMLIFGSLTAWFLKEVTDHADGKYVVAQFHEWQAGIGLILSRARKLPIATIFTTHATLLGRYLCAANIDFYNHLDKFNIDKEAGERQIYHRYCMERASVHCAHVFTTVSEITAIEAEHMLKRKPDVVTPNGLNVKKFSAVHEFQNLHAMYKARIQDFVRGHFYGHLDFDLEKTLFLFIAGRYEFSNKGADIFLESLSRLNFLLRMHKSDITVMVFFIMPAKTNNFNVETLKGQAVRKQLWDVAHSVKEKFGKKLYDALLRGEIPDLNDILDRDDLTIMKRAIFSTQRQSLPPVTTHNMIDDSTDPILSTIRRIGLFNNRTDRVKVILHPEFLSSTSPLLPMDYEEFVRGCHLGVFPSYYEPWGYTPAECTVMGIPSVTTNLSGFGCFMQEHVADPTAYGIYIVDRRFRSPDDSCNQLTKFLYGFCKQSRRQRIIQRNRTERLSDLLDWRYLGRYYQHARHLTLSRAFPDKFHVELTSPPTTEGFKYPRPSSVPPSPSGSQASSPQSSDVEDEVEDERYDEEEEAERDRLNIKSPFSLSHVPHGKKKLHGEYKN
Chain of hGYS2 enzyme (recombinant hGYS2/GN1 protein) (P46976 whole entry partner): as the sequence (P46976 whole entry partner) above

Molecule | IC50 ([1]; Homo sapiens, HeLa, 24 h) | IC50 [2] | IC50 [3] | IC50 [1]
CC(C(=O)N1C[C@H](F)C[C@H]1C(=O)N[C@@H](c1ccccc1)c1ccc(C2(C)CC2)c(F)c1)n1cnc2ccccc21 (single isomer, unassigned) [Compound 567, (2S,4R)-1-[(2R) or (2S)-2-(1H-1,3-benzodiazol-1-yl)propanoyl]-4-fluoro-N-[(S)-[3-fluoro-4-(1-methylcyclopropyl)phenyl](phenyl)methyl]pyrrolidine-2-carboxamide] | – | 642 nM | > 100000 nM | 11500 nM
CC(C(=O)N1C[C@H](F)C[C@H]1C(=O)N[C@@H](c1ccccc1)c1ccc(C2(C)CC2)c(F)c1)n1cnc2ccccc21 (single isomer, unassigned) [Compound 574, (2S,4R)-1-[(2S) or 2R)-2-(1H-1,3-benzodiazol-1-yl)propanoyl]-4-fluoro-N-[(S)-[3-fluoro-4-(1-methylcyclopropyl)phenyl](phenyl) methyl]pyrrolidine-2-carboxamide] | – | 22 nM | > 100000 nM | 200 nM
CC(C(=O)N1C[C@H](F)C[C@H]1C(=O)N[C@@H](c1ccccc1)c1ccc(C2(C)CC2)c(F)n1)n1cnc2ccccc21 (single isomer, unassigned) [Compound 587, (2S,4R)-1-((R) or (S)-2-(1H-benzo[d]imidazol-1-yl)propanoyl)-4-fluoro-N—((S)-(6-fluoro-5-(1-methylcyclopropyl)pyridin-2-yl)(phenyl)methyl)pyrrolidine-2-carboxamide] | – | 109 nM | > 100000 nM | 2390 nM
Cc1nc(C(NC(=O)[C@@H]2C[C@@H](F)CN2C(=O)Cc2cnn[nH]2)c2ccccc2)ccc1C(C)C (single isomer, unassigned) [Compound 607, (2S,4R)-4-fluoro-N-[(S) or (R)-[6-methyl-5-(propan-2-yl)pyridin-2-yl](phenyl)methyl]-1-[2-(1H-1,2,3-triazol-5-yl)acetyl]pyrrolidine-2-carboxamide] | 3290 nM | 333 nM | > 100000 nM | –
CC(C)(C)c1ccc(C(NC(=O)[C@@H]2C[C@@H](F)CN2C(=O)Cc2cnn[nH]2)c2ccccc2)nc1 (single isomer, unassigned) [Compound 611, (2S,4R)-N-[(S) or (R)-(5-tert-butylpyridin-2-yl)(phenyl)methyl]-4-fluoro-1-[2-(1H-1,2,3-triazol-5-yl)acetyl]pyrrolidine-2-carboxamide] | 5320 nM | 547 nM | > 100000 nM | –
CC(C)c1ccc([C@@H](NC(=O)[C@@H]2C[C@@H](F)CN2C(=O)Cc2nn(C)c(=O)n2C)c2ccccc2)nc1F [Compound 779, (2S,4R)-1-[2-(1,4-dimethyl-5-oxo-4,5-dihydro-1H-1,2,4-triazol-3-yl)acetyl]-4-fluoro-N-[(S)-[6-fluoro-5-(propan-2-yl)pyridin-2-yl](phenyl)methyl] pyrrolidine-2-carboxamide] | 330 nM | – | > 100000 nM | –
Cc1cc(C(F)F)nn1CC(=O)N1C[C@H](F)C[C@H]1C(=O)N[C@@H](c1ccccc1)c1ccc(C(C)C)c(F)n1 [Compound 804, (2S,4R)-1-{2-[3-(difluoromethyl)-5-methyl-1H-pyrazol-1-yl]acetyl}-4-fluoro-N-[(S)-[6-fluoro-5-(propan-2-yl)pyridin-2-yl](phenyl)methyl] pyrrolidine-2-carboxamide] | 140 nM | 17 nM | – | –
CCn1ccnc(CC(=O)N2C[C@H](F)C[C@H]2C(=O)N[C@@H](c2ccccc2)c2ccc(C(C)C)c(F)n2)c1=O [Compound 806, (2S,4R)-1-[2-(4-ethyl-3-oxo-3,4-dihydropyrazin-2-yl)acetyl]-4-fluoro-N-[(S)-[6-fluoro-5-(propan-2-yl)pyridin-2-yl](phenyl)methyl] pyrrolidine-2-carboxamide] | 90 nM | 6 nM | – | –
(2S,4R)-4-fluoro- N-[(S) or (R)-[6- fluoro-5-(propan- 2-yl)pyridin-2- yl][3-(1,2-oxazol-5- yl)phenyl]methyl]- 1-[2-(1H-1,2,3- triazol-5- yl)acetyl]pyrrolidine- 2-carboxamide [Compound 694] | – | 34 nM | – | 1210 nM

Further molecules by falling IC50 [2], results first:

IC50 ([1]; Homo sapiens, HeLa, 24 h) | IC50 [2] | IC50 [3] | IC50 [1] | Molecule
> 5670 nM | 369 nM | > 100000 nM | – | O=C(NC(c1ccccc1)c1ccc(C2CC2)cn1)[C@@H]1C[C@@H](F)CN1C(=O)Cc1cnn[nH]1 (single isomer, unassigned) [Compound 497, (2S,4R)-1-(2-(1H-1,2,3-triazol-5-yl)acetyl)-N—((S) or (R)-(5-cyclopropylpyridin-2-yl)(phenyl)methyl)-4-fluoropyrrolidine-2-carboxamide]
1650 nM | 225 nM | > 100000 nM | – | Cc1nc(C(NC(=O)[C@@H]2C[C@@H](F)CN2C(=O)Cc2nnc(C(F)F)o2)c2ccccc2)ccc1C(C)C (single isomer, unassigned) [Compound 609, (2S,4R)-1-{2-[5-(difluoromethyl)-1,3,4-oxadiazol-2-yl]acetyl}-4-fluoro-N-[(S) or (R)-[6-methyl-5-(propan-2-yl)pyridin-2-yl](phenyl)methyl] pyrrolidine-2-carboxamide]
1590 nM | 176 nM | > 100000 nM | – | Cc1cc(C(NC(=O)[C@@H]2C[C@@H](F)CN2C(=O)Cc2cnn[nH]2)c2ccccc2)ncc1C(C)C (single isomer, unassigned) [Compound 604, (2S,4R)-4-fluoro-N-[(S) or (R)-[4-methyl-5-(propan-2-yl)pyridin-2-yl](phenyl)methyl]-1-[2-(1H-1,2,3-triazol-5-yl)acetyl]pyrrolidine-2-carboxamide]
13600 nM | 176 nM | > 100000 nM | – | CC(C)c1ccc(C(NC(=O)[C@@H]2C[C@@H](F)CN2C(=O)Cc2cnn[nH]2)c2ccn3cncc3c2)nc1F (single isomer, unassigned) [Compound 631, (2S,4R)-4-fluoro-N-[(S) or (R)-[6-fluoro-5-(propan-2-yl)pyridin-2-yl]({imidazo[1,5-a]pyridin-7-yl})methyl]-1-[2-(1H-1,2,3-triazol-5-yl)acetyl]pyrrolidine-2-carboxamide]
2130 nM | 168 nM | > 100000 nM | – | CC(C)c1cnc(C(NC(=O)[C@@H]2C[C@@H](F)CN2C(=O)Cc2cnn[nH]2)c2ccccc2)cc1F (single isomer, unassigned) [Compound 605, (2S,4R)-4-fluoro-N-[(S) or (R)-[4-fluoro-5-(propan-2-yl)pyridin-2-yl] (phenyl)methyl]-1-[2-(1H-1,2,3-triazol-5-yl)acetyl]pyrrolidine-2-carboxamide]
1140 nM | 139 nM | > 100000 nM | – | Cc1cc(C(NC(=O)[C@@H]2C[C@@H](F)CN2C(=O)Cc2c(C)nn(C)c2C)c2cccnc2N)ccc1C(C)C (single isomer, unassigned) [Compound 625, (2S,4R)-N-[(R) or (S)-(2-aminopyridin-3-yl)[3-methyl-4-(propan-2-yl)phenyl]methyl]-4-fluoro-1-[2-(1,3,5-trimethyl-1H-pyrazol-4-yl)acetyl]pyrrolidine-2-carboxamide]
4070 nM | 111 nM | > 100000 nM | – | CC(C)c1ccc(C(NC(=O)[C@@H]2C[C@@H](F)CN2C(=O)Cc2cnn[nH]2)c2ccn[nH]2)cc1F (single isomer, unassigned) [Compound 623, (2S,4R)-4-fluoro-N-[(R) or (S)-[3-fluoro-4-(propan-2-yl)phenyl](1H-pyrazol-5-yl)methyl]-1-[2-(1H-1,2,3-triazol-5-yl)acetyl]pyrrolidine-2-carboxamide]
2130 nM | 92 nM | > 100000 nM | – | CC(C)c1ccc(C(NC(=O)[C@@H]2C[C@@H](F)CN2C(=O)Cc2ncco2)c2ccn[nH]2)nc1F (single isomer, unassigned) [Compound 630, (2S,4R)-4-fluoro-N-[(S) or (R)-[6-fluoro-5-(propan-2-yl)pyridin-2-yl](1H-pyrazol-5-yl)methyl]-1-[2-(1,3-oxazol-2-yl)acetyl]pyrrolidine-2-carboxamide]
450 nM | 19 nM | – | – | CC(C)c1ccc([C@@H](NC(=O)[C@@H]2C[C@@H](F)CN2C(=O)Cn2nncc2N2CC(F)(F)C2)c2ccccc2)nc1F [Compound 807, (2S,4R)-1-{2-[5-(3,3-difluoroazetidin-1-yl)-1H-1,2,3-triazol-1-yl]acetyl}-4-fluoro-N-[(S)-[6-fluoro-5-(propan-2-yl)pyridin-2-yl](phenyl)methyl] pyrrolidine-2-carboxamide]
280 nM | 12 nM | – | – | CCN(CC)c1cnnn1CC(=O)N1C[C@H](F)C[C@H]1C(=O)N[C@@H](c1ccccc1)c1ccc(C(C)C)c(F)n1 [Compound 805, (2S,4R)-1-{2-[5-(diethylamino)-1H-1,2,3-triazol-1-yl]acetyl}-4-fluoro-N-[(S)-[6-fluoro-5-(propan-2-yl)pyridin-2-yl](phenyl)methyl] pyrrolidine-2-carboxamide]
– | 10 nM | > 100000 nM | 150 nM | CC(C(=O)N1C[C@H](F)C[C@H]1C(=O)N[C@@H](c1ccccc1)c1ccc(C2(C)CC2)c(F)n1)n1cnc2ccccc21 (single isomer, unassigned) [Compound 586, (2S,4R)-1-((S) or (R)-2-(1H-benzo[d]imidazol-1-yl)propanoyl)-4-fluoro-N—((S)-(6-fluoro-5-(1-methylcyclopropyl)pyridin-2-yl)(phenyl)methyl)pyrrolidine-2-carboxamide]
